Laboratory results reported in paper PMC10138389, “Study of Lipophilicity and ADME Properties of 1,9-Diazaphenothiazines with Anticancer Action” (International Journal of Molecular Sciences, 2023).

Experiments:
[1] = cited from earlier work; for logPTLC, 1,6-Diaza: 1,6-diazaphenothiazines; for logPTLC, 1,8-Diaza: 1,8-diazaphenothiazines; for logPTLC, 2,7-Diaza: 2,7-diazaphenothiazines; for logPTLC, 3,6-Diaza: 3,6-diazaphenothiazines
[2] = experimental lipophilicity by RP-TLC (RM0, logPTLC); type: physicochemical; settings: for logPTLC, 1,9-Diaza: 1,9-diazaphenothiazines, comparison table; for −b (slope of RM = RM0 + bC) / RM0 (relative lipophilicity parameter): RP-TLC; for −b (slope of RM = RM0 + bC): RP 18F254S, acetone/TRIS buffer pH 7.4; for RM0 (relative lipophilicity parameter): extrapolation to zero acetone concentration, TRIS buffer pH 7.4; for chromatographic logP: pH 7.4, RM0 converted with the calibration curve of standards I–V
Method: In the next stage, experimental measurements of the lipophilicity coefficient were performed with the use of reversed-phase thin-layer chromatography RP-TLC.
The experimental RP-TLC method provided the RM retention parameter (calculated from RF value measurements) using the following equation:RM = log (1/RF − 1)(1)
Then a calibration curve was created using the same measuring conditions. […] The calibration curve was used to convert the values of the relative lipophilicity parameter RM0 of the tested hybrids into the value of the absolute lipophilicity parameter logPTLC.
The equation of the standard curve with which it was possible to convert the relative lipophilicity parameter RM0 into the absolute parameter logPTLC is presented in Figure 2.
The RP-TLC method was used to determine the experimental lipophilicity according to the literature. Modified silica gel RP 18F254S (Merck) was used as the stationary phase and a mixture of tris(hydroxymethyl)aminomethane (TRIS) (0.2 M, buffer pH = 7.4) with acetone as the mobile phase with the range of concentrations from 40 to 70% (v/v) in 5% increments. […] Spots were observed under UV light at λ = 254 nm. Each measurement was performed in triplicate and then the RF values were calculated.

[3] = test system: melanoma C-32; design: method as in PMID 31307242, PMID 33807874; settings: melanoma C-32 cell line; cited from earlier work
[4] = test system: glioblastoma SNB-19; design: method as in PMID 31307242, PMID 33807874; settings: cited from earlier work
[5] = test system: breast cancer MDA-MB-231; design: method as in PMID 31307242, PMID 33807874; settings: cited from earlier work
[6] = test system: H3, TP53, CDKN1A, BCL-2, and BAX genes; design: method as in PMID 33807874; settings: RT-QPCR, tested cell lines; cited from earlier work
[7] = test system: SNB-19 cells; design: method as in PMID 33807874; settings: Annexin V; cited from earlier work
[8] = standards; cited from earlier work

Row | −b (slope of RM = RM0 + bC) [2] | RM0 (relative lipophilicity parameter) [2] | chromatographic logP [2] | SMILES | other results
1 |  |  |  | c1cnc2c(c1)Nc1ncccc1S2 [1,6-Diaza A, 10H-1,6-diazaphenothiazine] | logPTLC, 1,6-Diaza [1]: 2.316
2 |  |  |  | C=CCN1c2cccnc2Sc2cccnc21 [1,6-Diaza B] | logPTLC, 1,6-Diaza [1]: 3.008
3 |  |  |  | C#CCN1c2cccnc2Sc2cccnc21 [1,6-Diaza C] | logPTLC, 1,6-Diaza [1]: 1.574
4 |  |  |  | CN(C)CCCN1c2cccnc2Sc2cccnc21 [1,6-Diaza D] | logPTLC, 1,6-Diaza [1]: 1.156
5 |  |  |  | c1cnc2c(c1)Sc1ccncc1N2 [1,8-Diaza A] | logPTLC, 1,8-Diaza [1]: 1.759
6 |  |  |  | C=CCN1c2cnccc2Sc2cccnc21 [1,8-Diaza B] | logPTLC, 1,8-Diaza [1]: 2.313
7 |  |  |  | C#CCN1c2cnccc2Sc2cccnc21 [1,8-Diaza C] | logPTLC, 1,8-Diaza [1]: 2.186
8 |  |  |  | CN(C)CCCN1c2cnccc2Sc2cccnc21 [1,8-Diaza D] | logPTLC, 1,8-Diaza [1]: 1.832
9 |  |  |  | c1cc2c(cn1)Nc1ccncc1S2 [2,7-Diaza A] | logPTLC, 2,7-Diaza [1]: 1.540
10 |  |  |  | C=CCN1c2ccncc2Sc2ccncc21 [2,7-Diaza B] | logPTLC, 2,7-Diaza [1]: 1.940
11 |  |  |  | C#CCN1c2ccncc2Sc2ccncc21 [2,7-Diaza C] | logPTLC, 2,7-Diaza [1]: 1.654
12 |  |  |  | CN(C)CCCN1c2ccncc2Sc2ccncc21 [2,7-Diaza D] | logPTLC, 2,7-Diaza [1]: 1.940
13 |  |  |  | c1cnc2c(c1)Nc1ccncc1S2 [3,6-Diaza A, 10H-3,6-diazaphenothiazine] | logPTLC, 3,6-Diaza [1]: 0.952
14 |  |  |  | C=CCN1c2ccncc2Sc2ncccc21 [3,6-Diaza B] | logPTLC, 3,6-Diaza [1]: 1.329
15 |  |  |  | C#CCN1c2ccncc2Sc2ncccc21 [3,6-Diaza C] | logPTLC, 3,6-Diaza [1]: 1.342
16 |  |  |  | CN(C)CCCN1c2ccncc2Sc2ncccc21 [3,6-Diaza D] | logPTLC, 3,6-Diaza [1]: 1.404
17 | 0.0205 | 1.1970 | 1.48 | c1cnc2c(c1)Sc1cccnc1N2 [Compound 1, 10H-1,9-diazaphenothiazine] | logPTLC, 1,9-Diaza [2]: 1.476; IC50 [3]: 3.83 µM; anticancer activity against other lines [4]: inactive; anticancer activity against other lines [5]: inactive
18 | 0.0192 | 1.3850 | 1.66 | CN1c2ncccc2Sc2cccnc21 [Compound 2] | 
19 | 0.0278 | 1.4052 | 1.68 | C=CCN1c2ncccc2Sc2cccnc21 [Compound 3] | logPTLC, 1,9-Diaza [2]: 1.682
20 | 0.0195 | 1.4720 | 1.75 | C#CCN1c2ncccc2Sc2cccnc21 [Compound 4] | logPTLC, 1,9-Diaza [2]: 1.747; expression of the CDKN1A gene [6]: enhanced; expression of the H3 gene [6]: reduced; expression of the TP53 gene [6]: reduced; early and late cell apoptosis populations [7]: slight increase
21 | 0.0205 | 1.7877 | 2.06 | c1ccc(CN2c3ncccc3Sc3cccnc32)cc1 [Compound 5, 10-benzyl-1,9-diazaphenothiazine] | 
22 | 0.0170 | 1.8096 | 2.08 | CN(C)CCCN1c2ncccc2Sc2cccnc21 [Compound 6] | logPTLC, 1,9-Diaza [2]: 2.080
23 | 0.0180 | 1.7934 | 2.06 | CCN(CC)CCN1c2ncccc2Sc2cccnc21 [Compound 7] | expression of the CDKN1A gene [6]: enhanced; expression of the H3 gene [6]: reduced; expression of the TP53 gene [6]: reduced; early and late cell apoptosis populations [7]: slight increase
24 | 0.0228 | 1.8961 | 2.17 | CC(CN(C)C)CN1c2ncccc2Sc2cccnc21 (stereo not shown) [Compound 8] | 
25 | 0.0123 | 1.9434 | 2.21 | c1cnc2c(c1)Sc1cccnc1N2CCN1CCCC1 [Compound 9] | 
26 | 0.0214 | 1.9781 | 2.25 | c1cnc2c(c1)Sc1cccnc1N2CCN1CCCCC1 [Compound 10] | 
27 | 0.0211 | 1.9988 | 2.27 | CN1CCCCC1CCN1c2ncccc2Sc2cccnc21 (stereo not shown) [Compound 11] | 
28 | 0.018 | 1.011 |  | CC(=O)Nc1ccccc1 [I, acetanilide, reference compound] | log P TLC (logPlit.) [8]: 1.21 [22]
29 | 0.019 |  |  | CC(=O)c1ccccc1 [II, acetophenone, reference compound] | 
30 |  |  |  | N.N.[Cl][Pt][Cl] [cisplatin, reference compound] | IC50 [3]: 13.2 µM

Row | SMILES | −b (slope of RM = RM0 + bC) [2] | RM0 (relative lipophilicity parameter) [2] | chromatographic logP [2] | other results
31 | CC(=O)c1ccc(Br)cc1 [III, 4-bromoacetophenone, reference compound] | 0.033 | 2.281 |  | log P TLC (logPlit.) [8]: 2.43 [23]
32 | O=C(c1ccccc1)c1ccccc1 [IV, benzophenone, reference compound] | 0.034 |  |  | 
33 | c1ccc2cc3ccccc3cc2c1 [V, anthracene, reference compound] | 0.044 | 3.588 |  | log P TLC (logPlit.) [8]: 5.53 [22]
